Read-outs that look alike come from different tables or passages of the source.
T1: RARα (Homo sapiens, UniProt P10276)
T1 construct: expressed in transfected cells; host or cells: CV-1 (African green monkey kidney)
T1 sequence (P10276 1-462): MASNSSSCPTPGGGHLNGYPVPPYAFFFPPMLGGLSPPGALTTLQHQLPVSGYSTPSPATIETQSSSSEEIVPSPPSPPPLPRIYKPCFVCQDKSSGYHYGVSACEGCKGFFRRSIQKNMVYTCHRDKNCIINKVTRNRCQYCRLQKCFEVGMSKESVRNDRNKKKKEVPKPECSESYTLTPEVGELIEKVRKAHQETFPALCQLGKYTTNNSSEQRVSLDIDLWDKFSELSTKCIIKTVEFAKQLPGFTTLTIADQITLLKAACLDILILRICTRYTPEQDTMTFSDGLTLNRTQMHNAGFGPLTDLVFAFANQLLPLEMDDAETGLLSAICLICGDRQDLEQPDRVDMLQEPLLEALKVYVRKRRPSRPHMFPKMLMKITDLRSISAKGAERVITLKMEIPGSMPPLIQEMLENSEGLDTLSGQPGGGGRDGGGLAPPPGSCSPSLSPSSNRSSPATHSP
T1 sequence (P19793 1-462 partner): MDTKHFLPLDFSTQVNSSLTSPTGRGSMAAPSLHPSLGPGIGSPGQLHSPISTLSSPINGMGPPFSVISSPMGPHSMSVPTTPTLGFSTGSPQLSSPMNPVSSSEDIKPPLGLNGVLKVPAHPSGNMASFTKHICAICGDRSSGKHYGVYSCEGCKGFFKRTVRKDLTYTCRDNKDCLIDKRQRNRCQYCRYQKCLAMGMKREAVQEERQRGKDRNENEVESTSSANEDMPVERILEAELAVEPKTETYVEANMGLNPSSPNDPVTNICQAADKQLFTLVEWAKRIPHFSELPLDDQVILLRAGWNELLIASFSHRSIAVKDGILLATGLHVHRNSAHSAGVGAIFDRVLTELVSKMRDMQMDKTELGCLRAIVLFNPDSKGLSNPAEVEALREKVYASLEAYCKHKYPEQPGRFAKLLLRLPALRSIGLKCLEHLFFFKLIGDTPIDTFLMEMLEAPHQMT

B1: ERRγ3: novel ERRγ isoform, nuclear receptor protein of 396 amino acids (SEQ ID NO: 2) lacking part of the DNA binding domain (protein, listed as Homo sapiens)
chain: MSNKDRHIDSSCSSFIKTEPSSPASLTDSVNHHSPGGSSDASGSYSSTMNGHQNGLDSPPLYPSAPILGGSGPVRKLYDDCSSTIVEDPQTKCEYMLNSMPKRLCLVCGDIASGYHYGVASCEACKAFFKRTIQGVRLDRVRGGRQKYKRRIDAENSPYLNPQLAQPAKKPYNKIVSHLLVAEPEKIYAMPDPTVPDSDIKALTTLCDLADRELVVIIGWAKHIPGFSTLSLADQMSLLQSAWMEILILGVVYRSLSFEDELVYADDYIMDEDQSKLAGLLDLNNAILQLVKKYKSMKLEKEEFVTLKAIALANSDSMHIEDVEAVQKLQDVLHEALQDYEAGQHMEDPRRAGKMLMTLPLLRQTSTKAVQHFYNIKLEGKVPMHKLFLEMLEAKV

Legend:
ERRγ2 = settings: stated as known property, cited from earlier work
Sequence of ERRγ2 (P62508 whole entry): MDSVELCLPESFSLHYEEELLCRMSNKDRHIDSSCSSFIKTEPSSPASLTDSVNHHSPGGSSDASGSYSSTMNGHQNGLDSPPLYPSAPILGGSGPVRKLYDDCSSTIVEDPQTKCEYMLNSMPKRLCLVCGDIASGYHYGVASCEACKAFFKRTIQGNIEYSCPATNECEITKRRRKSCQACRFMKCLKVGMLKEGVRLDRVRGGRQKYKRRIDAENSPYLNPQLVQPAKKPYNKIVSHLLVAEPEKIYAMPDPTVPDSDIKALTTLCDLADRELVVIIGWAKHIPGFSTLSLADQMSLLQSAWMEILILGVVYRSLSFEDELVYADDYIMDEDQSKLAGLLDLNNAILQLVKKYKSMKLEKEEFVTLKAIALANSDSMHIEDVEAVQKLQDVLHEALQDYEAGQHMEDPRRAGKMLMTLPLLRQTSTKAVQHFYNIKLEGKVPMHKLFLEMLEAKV

RARα = biological target: T1, RARα; experiment: Reporter gene assay, ERRγ3 coexisted with RARα, pGVP2-RARE in CV-1 cells; format: cell-based; settings: 5×10^−8 M retinoic acid, FIG. 22
Source text: The reporter gene assay was used to evaluate the effect of ligand 4-hydroxytamoxifen and 5×10^−8 M of retinoic acid on the function of ERRγ3 in enhancing the transcriptional activation function of retinoic acid receptor (RAR) (FIG. 22). RAR is a nuclear receptor belonging to group B of subfamily 1.
CV-1 cells (a cell line derived from the kidney of African green monkey) were used as hosts in the reporter gene assay. The luciferase reporter plasmid pGVP2-RARE and the expression plasmids for ERRγ3 and RARα: pcDNA3.1-ERRγ3 and pcDNA3.1-RARα, respectively, or alternatively the expression plasmid for both nuclear receptors, were transfected into the host cells. […]
Transfection was performed as follows: CV-1 cells were resuspended in DMEM supplemented with 10% fetal bovine serum, 2000 U/l of penicillin G, and 100 mg/l of streptomycin to a concentration of 2×10^5 cells/2.5 ml. […] 1 μg of each of the expression plasmids for the transcription factors, the luciferase reporter plasmid, and another luciferase reporter plasmid used for normalization of the measured values (pRL-TK), were dissolved in Opti-MEM (Gibco BRL), to a total of 150 μl. […] Luciferase activity was measured using the Dual-Luciferase™ Reporter Assay System (Promega). […] The protocol for measurement was as follows: 50 μl of Luciferase Assay Reagent II was added to each well, stirred for 0.3 seconds, and measured for one second. […]

Row | Molecule | inhibition of the transcriptional activation function of ERRγ2 (ERRγ2) | inhibition of the transcriptional activation function of ERRγ2 (ERRγ2; listed as 4-OHT) | modifying effect on the transcriptional stimulation activity of RAR (RARα)
1 | 4-hydroxytamoxifen [reference compound] | known to inhibit ERRγ2 activity | inhibiting their transcriptional activation function | –
2 | B1 | – | – | did not show a significant modifying effect

From US20060148030A1, “Nuclear receptor err y 3” (FUJISAWA PHARMACEUTICAL CO., LTD, priority 2002, published 2006)
